Results as given in patent US8518956B2, “1-(1-(2-ethoxyethyl)-3-ethyl-7-(4-methylpyridin-2-ylamino)-1H-pyrazolo[4,3-d]pyrimidin-5-yl) piperidine-4-carboxylic acid and salts thereof” (priority 2005, dated 2013).

molecular target: T1, PDE5 enzyme (Homo sapiens, UniProt O76074); test: Method 1: Human Platelet PDE5 Enzyme Inhibition Scintillation Proximity Assay; format: biochemical; settings: METHOD 1: PDE5 IC50, Table B, WO2004096810 examples
T1 construct: The PDE5 enzyme isolated from human platelets; from tissue; host or cells: human platelets
Summary of the method: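 IC50 fitted from 10-point half-log dose-response curves run in duplicate, with inhibition relative to uninhibited controls. SPA beads capture [3H]GMP produced when platelet-derived PDE5 acts for 60 min at 30 °C on 500 nM cGMP (3:1 cold:labelled) in pH 7.4 Tris/MgCl2/BSA buffer.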

Row | Compound | IC50 [nM]
1 | CCCOCCn1nc(C)c2nc(N3CCN[C@H](C)C3)nc(Nc3cc(C)ccn3)c21 [WO2004096810 Example 4] | 8.84
2 | CCOCCn1nc(CC)c2nc(N(C)C3CCN(C)CC3)nc(Nc3ccncn3)c21 [compound 2] | 0.48
3 | COCCn1nc(C)c2nc(N3C[C@H](C)NC[C@H]3C)nc(Nc3ccc(C)cn3)c21 [WO2004096810 Example 134] | 6.57
4 | CCCc1nn(C)c2c(Nc3ccncn3)nc(N3CCN[C@H](C)C3)nc12 [WO2004096810 Example 91] | 22.6
5 | CCOCCn1nc(CC)c2nc(N3C[C@H](C)NC[C@H]3C)nc(Nc3ccncn3)c21 [WO2004096810 Example 141] | 0.15
6 | CCc1nn(CCOC)c2c(Nc3ccc(C)cn3)nc(NCCCO)nc12 [WO2004096810 Example 103] | 76.6
7 | CCCc1nn(C)c2c(Nc3ccncn3)nc(N3CCN(C)CC3)nc12 [WO2004096810 Example 80] | 1940
8 | CCCc1nn(C)c2c(Nc3ccncn3)nc(N3CCN[C@@H](C)C3)nc12 [WO2004096810 Example 81] | 118
9 | CCCc1nn(C)c2c(Nc3ccc(C)cn3)nc(N3CCNCC3)nc12 [WO2004096810 Example 34] | 50.2
10 | COCCCn1nc(C)c2nc(NCCO)nc(Nc3cc(C)ccn3)c21 [WO2004096810 Example 96] | 87.9
11 | CCOCCn1nc(CC)c2nc(N3CCN[C@@H](C(C)C)C3)nc(Nc3ccncn3)c21 [WO2004096810 Example 18] | 25.8
12 | CCOCCn1nc(C)c2nc(N3C[C@@H](C)NC[C@@H]3C)nc(Nc3cc(C)ccn3)c21 [WO2004096810 Example 145] | 7.15
13 | CCOCCn1nc(CC)c2nc(N3CCN[C@H](CC)C3)nc(Nc3ccncn3)c21 [WO2004096810 Example 19] | 0.49
14 | CCCc1nn(C)c2c(Nc3cc(OC)ncn3)nc(NC)nc12 [WO2004096810 Example 84] | 247
15 | CCCc1nn(C)c2c(Nc3cccc(C(=O)NC)n3)nc(N3CCNCC3)nc12 [WO2004096810 Example 128] | 1390

Now from value to molecule:

Row | IC50 [nM] | Compound
16 | 1.55 | CCOCCn1nc(C)c2nc(N(C)CCOC)nc(Nc3cc(C)ccn3)c21 [WO2004096810 Example 207]
17 | 13.4 | COCCn1nc(C)c2nc(N(C)[C@@H]3CCN(C)C3)nc(Nc3cc(C)ccn3)c21 [WO2004096810 Example 155]
18 | 16.7 | CCOCCn1nc(C)c2nc(N(C)[C@@H]3CCN(C)C3)nc(Nc3ccncn3)c21 [WO2004096810 Example 157]
19 | 19.5 | CCc1nn(CCOC)c2c(Nc3cc(C)ccn3)nc(NCCn3cccn3)nc12 [WO2004096810 Example 153]
20 | 7.22 | CCOCCn1nc(CC)c2nc(N(C)[C@@H]3CCN(C)C3)nc(Nc3ccncn3)c21 [WO2004096810 Example 160]
21 | 0.47 | CCOCCn1nc(COCC)c2nc(N(C)C)nc(Nc3cc(C)ccn3)c21 [WO2004096810 Example 188]
22 | 3.09 | CCOCCn1nc(CO)c2nc(N(C)CC)nc(Nc3ccncn3)c21 [WO2004096810 Example 228]
23 | 4.39 | CCOCCn1nc(CC)c2nc(N3C[C@@H](C)NC[C@@H]3C)nc(Nc3cc(C)ccn3)c21 [WO2004096810 Example 148]
24 | 0.83 | CCOCCn1nc(COC)c2nc(N(C)CCOC)nc(Nc3cc(C)ccn3)c21 [WO2004096810 Example 226]
25 | 32.1 | CCOCCn1nc(C)c2nc(N3C[C@@H](C)NC[C@@H]3C)nc(Nc3ccc(C)cn3)c21 [WO2004096810 Example 146]
26 | 3.85 | CCOCCn1nc(C)c2nc(N3C[C@@H]4C[C@H]3CN4)nc(Nc3cnc(C)c(C)c3)c21 [WO2004096810 Example 233]
27 | 8.79 | CCOCCn1nc(C)c2nc(N3C[C@@H]4C[C@H]3CN4)nc(Nc3cc(C)cc(C)n3)c21 [WO2004096810 Example 234]
28 | 16.2 | CCc1nn(CCOC)c2c(Nc3cc(C)ccn3)nc(NC)nc12 [compound 1]
29 | 0.24 | CCOCCn1nc(CC)c2nc(N(C)[C@H]3CCN(C)C3)nc(Nc3cc(C)ccn3)c21 [WO2004096810 Example 162]
